{
  "source": "paper PMC9311059",
  "about": "“P‐Glycoprotein and Breast Cancer Resistance Protein Transporter Inhibition by Cyclosporine and Quinidine on the Pharmacokinetics of Oral Rimegepant in Healthy Subjects” (Clinical Pharmacology in Drug Development, 2022)",
  "origin": "cited, not measured here",
  "key": {"[1]": {"system": "organic anion transporting polypeptide 1B1", "set-up": "method as in ref 7 = [7]; PMID 32058712; doi:10.1021/acs.jmedchem.9b01810; 7 Dubowchik GM , Conway CM , Xin AW . Blocking the CGRP pathway for acute and preventive treatment of migraine: the evolution of success . J Med Chem . 2020; 63 ( 13 ): 6600 ‐ 6623 . 32058712 10.1021", "conditions": "in vitro; cited from earlier work"}, "[2]": {"set-up": "method as in unpublished", "conditions": "rimegepant 75 mg with fluconazole 400 mg once daily for 8 consecutive days; ref unpublished; cited from earlier work"}, "CYP3A4": {"system": "CYP3A4", "set-up": "method as in ref 6, 7 = [6]; 6 PubChem [Internet]. Bethesda (MD): National Library of Medicine (US), National Center for Biotechnology Information; 2004‐. PubChem Compound Summary for CID 51049968, Rimegepant. https://pubchem.ncb || [7]; PMID 32058712; doi:10.1021/acs.jmedchem.9b01810; 7 Dubowchik GM , Conway CM , Xin AW . Blocking the CGRP pathway for acute and preventive treatment of migraine: the evolution of success . J Med Chem . 2020; 63 ( 13 ): 6600 ‐ 6623 . 32058712 10.1021", "conditions": "in vitro, human liver microsomes and recombinant human CYP enzymes; cited from earlier work"}},
  "data": [
    {"smiles": "N[C@@H]1c2cccnc2[C@H](OC(=O)N2CCC(n3c(=O)[nH]c4ncccc43)CC2)CC[C@H]1c1cccc(F)c1F", "note": "[Rimegepant]", "values": [
      {"measurement": "substrate of organic anion transporting polypeptide 1B1", "setting": "[1]", "value": "not a substrate"},
      {"measurement": "change in rimegepant Cmax", "setting": "[2]", "value": "no change"},
      {"measurement": "increase in rimegepant AUC", "setting": "[2]", "value": 80, "unit": "%"},
      {"measurement": "metabolising enzyme", "setting": "CYP3A4", "value": "primarily metabolized by CYP3A4"}
    ]}
  ]
}
